From ChEMBL document CHEMBL5518206, “Hit-to-Lead Identification and Validation of a Triaromatic Pleuromutilin Antibiotic Candidate” (J Med Chem, 2024) come the findings set out here.

The nature of data set [1]: Tmax in NMRI female mouse at 20 mg/kg, sc by HPLC analysis. Type of data set: ADME, organism-based. The following applies: in vivo.
Data set [2] can be described thus: Elimination rate constant in NMRI female mouse at 20 mg/kg, sc by HPLC analysis. Type of data set: ADME, organism-based. The following applies: in vivo.
Data set [3] in a line: Volume of distribution in NMRI female mouse at 20 mg/kg, sc by HPLC analysis. Type of data set: ADME, organism-based. The following applies: in vivo.
A short description of data set [4]: Bioavailability in NMRI female mouse at 20 mg/kg, sc by HPLC analysis. In kind it is ADME, organism-based. The following applies: in vivo.
Data set [5] can be described thus: AUC (0 to infinity) in NMRI female mouse at 60 mg/kg, sc by HPLC analysis. Type of data set: ADME, organism-based. The following applies: in vivo.
Data set [6] in a line: Clearance in NMRI female mouse at 60 mg/kg, sc by HPLC analysis. The following applies: in vivo. In kind it is ADME, organism-based.
Data set [7] can be described thus: Cmax in NMRI female mouse at 30 mg/kg, iv by HPLC analysis. The following applies: in vivo. Type of data set: ADME, organism-based.
Data set [8] is described as follows: Tmax in NMRI female mouse at 30 mg/kg, iv by HPLC analysis. Type of data set: ADME, organism-based. The following applies: in vivo.
Data set [9] is described as follows: AUC (0 to infinity) in NMRI female mouse at 30 mg/kg, iv by HPLC analysis. In kind it is ADME, organism-based. The following applies: in vivo.
Data set [10] can be described thus: AUC (0 to infinity) in NMRI female mouse at 30 mg/kg, po by HPLC analysis. Type of data set: ADME, organism-based. The following applies: in vivo.
A short description of data set [11]: Bioavailability in NMRI female mouse at 30 mg/kg, po by HPLC analysis. The following applies: in vivo. Type of data set: ADME, organism-based.
Data set [12] is described as follows: Elimination rate constant in pig plasma at 3 mg/kg, iv measured upto 240 mins by LC-MS/MS analysis. Type of data set: ADME, organism-based, Sus scrofa.
A short description of data set [13]: Tmax in pig urine at 3 mg/kg, iv measured upto 240 mins by LC-MS/MS analysis. Type of data set: ADME, organism-based, Sus scrofa.
Data set [14] in a line: Elimination rate constant in pig urine at 3 mg/kg, iv measured upto 240 mins by LC-MS/MS analysis. In kind it is ADME, organism-based, Sus scrofa.
Data set [15] is described as follows: Clearance in pig urine at 3 mg/kg, iv measured upto 240 mins by LC-MS/MS analysis. In kind it is ADME, organism-based, Sus scrofa.
The nature of data set [16]: Plasma concentration in pig at 10 mg/kg, po measured upto 240 mins by LC-MS/MS analysis. In kind it is ADME, organism-based, Sus scrofa.
A short description of data set [17]: Elimination rate constant in pig plasma at 10 mg/kg, po measured upto 240 mins by LC-MS/MS analysis. In kind it is ADME, organism-based, Sus scrofa.
Data set [18] in a line: Half life in pig plasma at 10 mg/kg, po measured upto 240 mins by LC-MS/MS analysis. In kind it is ADME, organism-based, Sus scrofa.
The target in data set [19] is Voltage-gated inwardly rectifying potassium channel KCNH2 (Homo sapiens, UniProt Q12809). Briefly: Inhibition of K+ ion channel activity of hERG. Type of data set: toxicity.
Data set [20] concerns Staphylococcus aureus. Briefly: Induction of resistant development in -(6-(6-(Piperazin-1-y1)-9H-purin-9-y)methyl)pyridin-3-y1)-1H-1,2,3-triazol-1-yl)-22-deoxypleuromutilin-16 passages resistance developed Staphylococcus aureus USA300 FPR3757 assessed as fold increase in MIC at sub-MIC concentration measured after 13 passages with conjugate by serial passage assay. Type of data set: functional.

Data set [21] concerns Staphylococcus aureus. The data set is described as follows: Induction of resistant development in -(6-(6-(Piperazin-1-y1)-9H-purin-9-y)methyl)pyridin-3-y1)-1H-1,2,3-triazol-1-yl)-22-deoxypleuromutilin-16 passages resistance developed Staphylococcus aureus USA300 FPR3757 assessed as fold increase in MIC at sub-MIC concentration measured after 18 passages with conjugate by serial passage assay. Type of data set: functional.

In data set [22] the test system is Staphylococcus aureus. The data set is described as follows: Induction of resistant development in -(6-(6-(Piperazin-1-y1)-9H-purin-9-y)methyl)pyridin-3-y1)-1H-1,2,3-triazol-1-yl)-22-deoxypleuromutilin-16 passages resistance developed Staphylococcus aureus USA300 FPR3757 assessed as fold increase in MIC at sub-MIC concentration measured after 25 passages with conjugate by serial passage assay. In kind it is functional.

In data set [23] the test system is Staphylococcus aureus. The data set is described as follows: Induction of resistant development in -(6-(6-(Piperazin-1-y1)-9H-purin-9-y)methyl)pyridin-3-y1)-1H-1,2,3-triazol-1-yl)-22-deoxypleuromutilin-16 passages resistance developed Staphylococcus aureus USA300 FPR3757 assessed as fold increase in MIC at sub-MIC concentration measured after 28 passages with conjugate by serial passage assay. In kind it is functional.

For data set [24], the system named is Staphylococcus aureus. The data set is described as follows: Induction of resistant development in lefamulin 5 passages resistance developed Staphylococcus aureus USA300 FPR3757 assessed as fold increase in MIC at sub-MIC concentration measured after 5 passages with conjugate by serial passage assay. In kind it is functional.
For data set [25], the system named is Staphylococcus aureus. The data set is described as follows: Induction of resistant development in lefamulin 5 passages resistance developed Staphylococcus aureus USA300 FPR3757 assessed as fold increase in MIC at sub-MIC concentration measured after 18 passages with conjugate by serial passage assay. Type of data set: functional.
For data set [26], the system named is Staphylococcus aureus. The data set is described as follows: Induction of resistant development in lefamulin 5 passages resistance developed Staphylococcus aureus USA300 FPR3757 assessed as fold increase in MIC at sub-MIC concentration measured after 28 passages with conjugate by serial passage assay. Type of data set: functional.
Data set [27] relates to Staphylococcus aureus. The data set is described as follows: Induction of resistant development in linezolid 5 passages resistance developed Staphylococcus aureus USA300 FPR3757 assessed as fold increase in MIC at sub-MIC concentration measured after 18 passages with conjugate by serial passage assay. Type of data set: functional.
In data set [28] the test system is Staphylococcus aureus. The data set is described as follows: Induction of resistant development in linezolid 5 passages resistance developed Staphylococcus aureus USA300 FPR3757 assessed as fold increase in MIC at sub-MIC concentration measured after 22 passages with conjugate by serial passage assay. Type of data set: functional.

Structures are written as SMILES.

Sequence of Voltage-gated inwardly rectifying potassium channel KCNH2 (Q12809 whole entry): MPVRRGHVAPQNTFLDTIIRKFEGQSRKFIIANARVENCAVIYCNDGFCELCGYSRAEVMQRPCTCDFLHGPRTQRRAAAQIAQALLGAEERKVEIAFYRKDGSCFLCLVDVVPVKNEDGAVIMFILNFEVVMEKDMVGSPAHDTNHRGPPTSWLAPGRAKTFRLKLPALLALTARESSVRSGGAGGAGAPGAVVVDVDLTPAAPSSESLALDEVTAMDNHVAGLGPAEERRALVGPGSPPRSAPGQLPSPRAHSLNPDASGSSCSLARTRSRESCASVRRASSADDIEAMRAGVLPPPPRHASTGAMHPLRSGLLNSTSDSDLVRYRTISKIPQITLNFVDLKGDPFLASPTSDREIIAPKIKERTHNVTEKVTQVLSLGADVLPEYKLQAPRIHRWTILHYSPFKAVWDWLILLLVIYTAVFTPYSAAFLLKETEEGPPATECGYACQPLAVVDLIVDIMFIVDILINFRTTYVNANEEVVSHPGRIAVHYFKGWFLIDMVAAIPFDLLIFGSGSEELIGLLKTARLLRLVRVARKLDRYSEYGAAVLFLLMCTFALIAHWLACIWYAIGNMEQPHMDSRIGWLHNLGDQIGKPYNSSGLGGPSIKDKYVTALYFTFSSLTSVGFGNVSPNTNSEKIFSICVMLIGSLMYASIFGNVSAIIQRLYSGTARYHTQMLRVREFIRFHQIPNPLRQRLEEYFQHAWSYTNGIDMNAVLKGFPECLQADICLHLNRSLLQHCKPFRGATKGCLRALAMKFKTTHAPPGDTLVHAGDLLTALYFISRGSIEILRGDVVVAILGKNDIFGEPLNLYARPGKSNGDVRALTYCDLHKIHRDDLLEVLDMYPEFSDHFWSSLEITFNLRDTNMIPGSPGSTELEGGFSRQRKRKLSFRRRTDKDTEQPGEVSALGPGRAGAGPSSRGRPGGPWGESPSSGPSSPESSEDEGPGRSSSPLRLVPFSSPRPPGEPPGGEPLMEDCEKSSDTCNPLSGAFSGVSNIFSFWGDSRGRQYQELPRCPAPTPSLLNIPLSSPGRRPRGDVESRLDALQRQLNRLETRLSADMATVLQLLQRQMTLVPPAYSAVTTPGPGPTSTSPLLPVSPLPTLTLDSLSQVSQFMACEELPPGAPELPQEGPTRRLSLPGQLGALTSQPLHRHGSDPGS

As for `C=C[C@]1(C)C[C@@H](OC(=O)Cn2cc(-c3ccc(Cn4cnc5c(N6CCNCC6)ncnc54)nc3)nn2)[C@]2(C)[C@H](C)CC[C@]3(CCC(=O)[C@H]32)[C@@H](C)[C@@H]1O`, the Tmax in data set [1] was 15 min; in data set [8] it was 0 h; in data set [13], 60 min. For the same molecule, in [2], the k el is 9.33e-05 s⁻¹. For the same molecule, the Vd in data set [3] was 17.1 L/kg. Further, the bioavailability in [4] came to 52%; in [11], 0.3%. The AUC in data set [5] is 428 µg/mL/min; in data set [9], 643 µg/mL/min; in [10], 1.6 µg/mL/min. This molecule had a CL/F in [6] of 140 mL/min/kg. The molecule also showed a Cmax in data set [7] of 8560 ng/mL. Moreover, the k el at 4 h in [12] was 0.000155 s⁻¹; in data set [14], 0.000418 s⁻¹; in data set [17], 0.000518 s⁻¹. In data set [15], the CL renal at 4 h was 3.67 mL/min/kg. Further, in data set [16], the concentration at 4 h stood at 49.7 ng/mL. In addition, the half-life in [18] is 22.2 min.

On to `C=C[C@]1(C)C[C@@H](OC(=O)CS[C@@H]2CC[C@@H](N)C[C@H]2O)[C@]2(C)[C@H](C)CC[C@]3(CCC(=O)[C@H]32)[C@@H](C)[C@@H]1O` [LEFAMULIN], for which the IC50 in data set [19] stood at 78.2 µM. Also, the fold change (FC) in the data set with Staphylococcus aureus [20] worked out at 16; in the data set with Staphylococcus aureus [21], 32; with Staphylococcus aureus [22] it was 64; in the data set on Staphylococcus aureus [23] it was 128; with Staphylococcus aureus [24], 4; in the data set on Staphylococcus aureus [25] it was 32. The fold change (FC) worked out at 128 in the data set with Staphylococcus aureus [26], 16 in the data set with Staphylococcus aureus [27] and 32 in the data set with Staphylococcus aureus [28].

One may read the Tmax as the time from dosing to the highest level. Usually bioavailability stands for dose-corrected exposure relative to a reference, in per cent. Higher therefore signals much systemic uptake. In general, CL/F refers to the apparent clearance, not corrected for the fraction that reaches the circulation. As a reminder, the Cmax is the highest concentration seen after dosing. What is called half-life is the time needed for the level to fall by half in the phase considered. For orientation: IC50 means the point on the concentration scale where inhibition reaches its midpoint. High values mean weaker potency, low ones greater potency.
